Results reported in ChEMBL document CHEMBL5543142, “Discovery of YFJ-36: Design, Synthesis, and Antibacterial Activities of Catechol-Conjugated β-Lactams against Gram-Negative Bacteria” (J Med Chem, 2024).

Experiments:
[1] = system: Acinetobacter baumannii; test: Antibacterial activity against multidrug-resistant Acinetobacter baumannii BM-2023-D2-010 infected in ICR mouse assessed as survival rate at 4.71 mg/kg,iv after 1 and 5 hour of post-infection measured after 7 days relative to control; format: functional; conditions: time 7 day
[2] = Volume of distribution at steady state in ICR mouse at 20 mg/kg,iv administration measured upto 6 hrs by LC-MS/MS analysis; format: ADME, organism-based; conditions: in vivo, read-out: Vdss
[3] = AUC (0 to infinity) in ICR mouse at 20 mg/kg,iv administration measured upto 6 hrs by LC-MS/MS analysis; format: ADME, organism-based; conditions: in vivo
[4] = system: Acinetobacter baumannii; test: Antibacterial activity against multidrug-resistant Acinetobacter baumannii BM-2023-D2-010 infected in ICR mouse assessed as survival rate at 6.72 mg/kg,iv after 1 and 5 hour of post-infection measured after 7 days relative to control; format: functional; conditions: time 7 day
[5] = system: Acinetobacter baumannii; test: Antibacterial activity against multidrug-resistant Acinetobacter baumannii BM-2023-D2-010 infected in ICR mouse assessed as survival rate at 3.3 mg/kg,iv after 1 and 5 hour of post-infection measured after 7 days relative to control; format: functional; conditions: time 7 day
[6] = system: Acinetobacter baumannii; test: Antibacterial activity against multidrug-resistant Acinetobacter baumannii BM-2023-D2-010 infected in ICR mouse assessed as survival rate at 40 mg/kg,iv after 1 and 5 hour of post-infection measured after 7 days relative to control; format: functional; conditions: time 7 day
[7] = MRT in ICR mouse at 20 mg/kg,iv administration measured upto 6 hrs by LC-MS/MS analysis; format: ADME, organism-based; conditions: in vivo
[8] = Half life in ICR mouse at 20 mg/kg,iv administration measured upto 6 hrs by LC-MS/MS analysis; format: ADME, organism-based; conditions: in vivo
[9] = Clearance in ICR mouse at 20 mg/kg,iv administration measured upto 6 hrs by LC-MS/MS analysis; format: ADME, organism-based; conditions: in vivo
[10] = system: Acinetobacter baumannii; test: Antibacterial activity against multidrug-resistant Acinetobacter baumannii BM-2023-D2-010 infected in ICR mouse assessed as survival rate at 13.7 mg/kg,iv after 1 and 5 hour of post-infection measured after 7 days relative to control; format: functional; conditions: time 7 day
[11] = system: Acinetobacter baumannii; test: Antibacterial activity against multidrug-resistant Acinetobacter baumannii BM-2023-D2-010 infected in ICR mouse assessed as survival rate at 19.6 mg/kg,iv after 1 and 5 hour of post-infection measured after 7 days relative to control; format: functional; conditions: time 7 day
[12] = system: Acinetobacter baumannii; test: Antibacterial activity against multidrug-resistant Acinetobacter baumannii BM-2023-D2-010 infected in ICR mouse assessed as survival rate at 9.6 mg/kg,iv after 1 and 5 hour of post-infection measured after 7 days relative to control; format: functional; conditions: time 7 day
[13] = system: Acinetobacter baumannii; test: Antibacterial activity against multidrug-resistant Acinetobacter baumannii BM-2023-D2-010 infected in ICR mouse assessed as survival rate at 28 mg/kg,iv after 1 and 5 hour of post-infection measured after 7 days relative to control; format: functional; conditions: time 7 day
[14] = Clearance in Sprague-Dawley rat at 5 mg/kg,iv administration measured upto 4 hrs by LC-MS/MS analysis; format: ADME, organism-based; conditions: in vivo
[15] = MRT in Sprague-Dawley rat at 5 mg/kg,iv administration measured upto 4 hrs by LC-MS/MS analysis; format: ADME, organism-based; conditions: in vivo
[16] = Half life in Sprague-Dawley rat at 5 mg/kg,iv administration measured upto 4 hrs by LC-MS/MS analysis; format: ADME, organism-based; conditions: in vivo
[17] = MRT in ICR mouse at 20 mg/kg,iv administration measured upto 4 hrs by LC-MS/MS analysis; format: ADME, organism-based; conditions: in vivo
[18] = Clearance in ICR mouse at 20 mg/kg,iv administration measured upto 4 hrs by LC-MS/MS analysis; format: ADME, organism-based; conditions: in vivo
[19] = AUC (0 to infinity) in Sprague-Dawley rat at 5 mg/kg,iv administration measured upto 4 hrs by LC-MS/MS analysis; format: ADME, organism-based; conditions: in vivo
[20] = Volume of distribution at steady state in Sprague-Dawley rat at 5 mg/kg,iv administration measured upto 4 hrs by LC-MS/MS analysis; format: ADME, organism-based; conditions: in vivo, read-out: Vdss
[21] = AUC (0 to infinity) in ICR mouse at 20 mg/kg,iv administration measured upto 4 hrs by LC-MS/MS analysis; format: ADME, organism-based; conditions: in vivo
[22] = Half life in ICR mouse at 20 mg/kg,iv administration measured upto 4 hrs by LC-MS/MS analysis; format: ADME, organism-based; conditions: in vivo
[23] = Volume of distribution at steady state in ICR mouse at 20 mg/kg,iv administration measured upto 4 hrs by LC-MS/MS analysis; format: ADME, organism-based; conditions: in vivo, read-out: Vdss
[24] = molecular target: hERG (KCNH2) (Homo sapiens, UniProt Q12809); test: Inhibition of hERG at 3 uM by whole cell Qpatch assay relative to control; format: toxicity
hERG (KCNH2), sequence (Q12809 whole entry): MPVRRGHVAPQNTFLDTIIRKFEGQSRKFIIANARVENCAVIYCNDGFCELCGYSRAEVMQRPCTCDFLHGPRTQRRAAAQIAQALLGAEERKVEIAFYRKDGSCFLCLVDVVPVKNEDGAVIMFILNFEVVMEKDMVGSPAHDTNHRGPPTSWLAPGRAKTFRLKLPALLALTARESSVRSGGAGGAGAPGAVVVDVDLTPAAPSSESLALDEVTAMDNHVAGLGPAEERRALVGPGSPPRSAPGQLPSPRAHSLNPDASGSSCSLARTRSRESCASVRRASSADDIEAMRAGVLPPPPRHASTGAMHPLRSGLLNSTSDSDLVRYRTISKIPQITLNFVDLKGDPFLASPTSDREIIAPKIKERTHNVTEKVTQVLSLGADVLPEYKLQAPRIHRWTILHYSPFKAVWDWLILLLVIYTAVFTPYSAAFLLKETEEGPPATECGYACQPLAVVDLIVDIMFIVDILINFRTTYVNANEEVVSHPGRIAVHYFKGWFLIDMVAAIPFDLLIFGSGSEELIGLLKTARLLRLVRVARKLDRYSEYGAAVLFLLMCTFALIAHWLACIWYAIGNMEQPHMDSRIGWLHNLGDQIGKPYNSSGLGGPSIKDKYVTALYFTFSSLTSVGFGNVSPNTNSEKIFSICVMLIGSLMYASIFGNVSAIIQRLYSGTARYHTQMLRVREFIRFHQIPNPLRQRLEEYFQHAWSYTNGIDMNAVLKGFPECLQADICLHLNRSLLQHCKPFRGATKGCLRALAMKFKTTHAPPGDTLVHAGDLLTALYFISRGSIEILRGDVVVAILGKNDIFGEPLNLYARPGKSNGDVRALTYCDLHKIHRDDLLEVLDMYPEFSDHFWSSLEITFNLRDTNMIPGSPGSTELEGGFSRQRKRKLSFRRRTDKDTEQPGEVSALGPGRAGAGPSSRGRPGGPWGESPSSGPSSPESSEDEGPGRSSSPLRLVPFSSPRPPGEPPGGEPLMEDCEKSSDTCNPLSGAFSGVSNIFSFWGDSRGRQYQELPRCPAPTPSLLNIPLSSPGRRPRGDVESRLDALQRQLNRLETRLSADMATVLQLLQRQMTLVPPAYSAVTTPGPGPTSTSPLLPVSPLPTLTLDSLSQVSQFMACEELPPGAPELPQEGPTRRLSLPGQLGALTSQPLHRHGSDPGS

CC(C)(O/N=C(\C(=O)N[C@@H]1C(=O)N2C(C(=O)[O-])=C(C[N+]3(CCNC(=O)c4ccc(O)c(O)c4Cl)CCCC3)CS[C@H]12)c1csc(N)n1)C(=O)[O-].[Na+]
Activity [1]: 20% | Vd [2]: 0.488 L/kg | AUC(0-inf) [3]: 11600 ng·h/mL | Activity [4]: 50% | Activity [5]: 0% | Activity [6]: 100% | MRT [7]: 16.8 min | half-life [8]: 16.2 min | clearance [9]: 29.2 mL/min/kg | Activity [10]: 100% | Activity [11]: 100% | Activity [12]: 70% | Activity [13]: 100%

Nc1nc(/C(=N/O[C@@H](C(=O)[O-])C2CCC(F)(F)CC2)C(=O)N[C@@H]2C(=O)N3C(C(=O)O)=C(CSCCNC(=O)c4ccc(O)c(O)c4Cl)CS[C@H]23)cs1.[Na+]
clearance [14]: 38.7 mL/min/kg | Activity [1]: 20% | Activity [4]: 30% | Activity [6]: 100% | MRT [15]: 9.6 min | half-life [16]: 13.8 min | MRT [17]: 9.6 min | Activity [10]: 100% | clearance [18]: 49.8 mL/min/kg | AUC(0-inf) [19]: 2260 ng·h/mL | Vd [20]: 0.37 L/kg | AUC(0-inf) [21]: 8910 ng·h/mL | Activity [11]: 100% | Activity [12]: 70% | half-life [22]: 29.4 min | Vd [23]: 0.488 L/kg | Activity [13]: 100%

COc1cc(N)c(Cl)cc1C(=O)N[C@H]1CCN(CCCOc2ccc(F)cc2)C[C@H]1OC [REL-CISAPRIDE]
inhibition at 3 µM [24]: 97.8%
